Assay [1] is described as follows: analgesic activity, Straub-Tail assay (Table 4). It counts as in vivo. From the text:
A wide variety of biological assays have been used to evaluate the ability of a compound to act as an analgesic. Any of these known assays can be used to evaluate the analgesic ability of the compounds disclosed herein. The Straub-tail reaction, which is characteristic of opiate alkaloids, has been used as an assay for opiate agonists and antagonists. The assay is described in detail in Br. J. of Pharmacol. 1969, 36, 225. Another accepted assay for analgesic activity is the hot plate analgesia assay, described in J. of Pharmacol. Exp. Therap. 1953, 107, 385. An assay for the evaluation of the ability of a compound to bind to an opiate receptor is described in Mol. Pharmacol. 1974, 10, 868.
[…] Daly et al. J. Am. […] Chem. Soc. 1992, 114, 3475; T. Li, et al. Bioorganic and Medicinal Chemistry Letters 1993, 3, 2759.

The test system of assay [2] is acetylcholine nicotinic receptor. Kind of assay: nicotinic receptor binding, [3H]-NMCI radioligand, rat cortex (Table 5). How it is done: 7-aza-bicyclo[2.2.1]-heptanes and -heptenes were evaluated for their ability to bind to the acetylcholine nicotinic receptor using a standard binding assay, e.g. X. Zhang and A. Nordberg, Arch. Pharmacol., 348, 28 (1993); R. E. Middleton and J. B. Cohen, Biochemistry, 30, 6987 (1991), with nicotine sulfate as the reference compound, rat cortex as the tissue substrate, and a [^3 H]-NMCI radioligand.

The mark [3] stands for this setting: Straub-Tail assay, read-out: ED50.

These results are taken from patent US6117889A, “7-Azabicyclo-[2.2.1]-heptane and -heptene derivatives as analgesics and anti-inflammatory agents” (priority 1996, dated 2000).

The structures appear in SMILES notation. Where two headings read alike, the source gives them in different places.

One may read the ED50 as the midpoint of the dose-response relation.

In the case of `Clc1ccc([C@@H]2C[C@H]3CC[C@@H]2N3)cn1` (relative stereo), in assay [1] (Straub-Tail assay), the ED50 turned out to be 0.01 mg/kg.

`C[N+]1(C)C2CCC1C(c1ccc(Cl)nc1)C2` (stereo not drawn): the Inhibition % in assay [2] (testing level 10^-7 M) came to 100%; in assay [2] (testing level 10^-9), 49%.

Consider `Clc1ccc([C@@H]2C[C@H]3CC[C@@H]2N3CCc2ccccc2)cn1` (relative stereo), for which, in assay [1] (setting [3]), the 50% effective dose (ED50) is under 1 mg/kg.

For the molecule `Fc1ccc([C@@H]2C[C@H]3CC[C@@H]2N3)cn1` (relative stereo), the ED50 in assay [1] (setting [3]) was about 0.05 mg/kg.

Regarding `c1cncc([C@@H]2C[C@H]3CC[C@@H]2N3)c1` (relative stereo), the ED50 in assay [1] (setting [3]) was found to be 0.25 mg/kg.

As for `COc1ccc([C@@H]2C[C@H]3CC[C@@H]2N3)cn1` (relative stereo), the ED50 in assay [1] (setting [3]) worked out at 0.75 mg/kg.

For the molecule `CN1[C@@H]2CC[C@H]1[C@H](c1ccc(Cl)nc1)C2` (relative stereo) [drawing 33], the ED50 in assay [1] (setting [3]) is under 0.01 mg/kg.

`Clc1ccc([C@@H]2C[C@H]3CC[C@@H]2N3CC2CC2)cn1` (relative stereo): the “analgesic activity (Straub-Tail), % at 1000 μg/Kg” value in assay [1] (@ 1000 (μg/Kg)) is 100%.

In assay [2] (testing level 10^-7 M), `Clc1ccc(C2CC3CCC2N3)cn1` (stereo not drawn) [R = H] registered an Inhibition % of 24%.

For `CN1C2CCC1C(c1ccc(Cl)nc1)C2` (stereo not drawn) [R = CH3], in assay [2] (testing level 10^-5 M), the Inhibition % amounted to 81%.

Take `CC(C)(C)Oc1ccc([C@@H]2C[C@H]3CC[C@@H]2N3)cn1` (relative stereo): in assay [1] (setting [3]), the 50% effective dose (ED50) is about 1 mg/kg.

In turn, `N=CN1C2CCC1C(c1cccnc1)C2` (stereo not drawn) displayed an Inhibition % in assay [2] (testing level 10^-9) of 5%.

With `N=CN1[C@@H]2CC[C@H]1[C@H](c1ccc(Cl)nc1)C2` (relative stereo), the “analgesic activity (Straub-Tail), % at 100” value in assay [1] (@ 100) worked out at 99%.

Turning to `ClCCN1[C@@H]2CC[C@H]1[C@H](c1ccc(Cl)nc1)C2` (relative stereo), the ED50 in assay [1] was about 0.1 mg/kg.

For the molecule `N=CN1C2CCC1C(c1ccc(Cl)nc1)C2` (stereo not drawn), the values for the Inhibition % in assay [2] (testing level 10^-9) and in assay [2] (testing level 10^-11) were 49% and 22%, respectively.

With `Clc1ccc([C@@H]2C[C@H]3C=C[C@@H]2N3)cn1` (relative stereo), in assay [1] (setting [3]), the ED50 was under 1 mg/kg.
